Reference: patent US20040014637A1, “Mechanism for the inactivation of insulin receptor and uses in the treatment of type II diabetes” (McGill University, priority 1998, published 2004)

Key:
[1] = molecular target: T1, EGF receptor (Rattus norvegicus, UniProt G3V6K6); assay: EGF receptor autophosphorylation in endosomes in the presence and absence of ATP; assay type: biochemical; conditions: ENs from EGF-treated rats incubated with 5 mM ATP
T1 construct: from tissue; host or cells: rat liver endosomes after EGF injection in vivo
T1 sequence (G3V6K6 25-1209): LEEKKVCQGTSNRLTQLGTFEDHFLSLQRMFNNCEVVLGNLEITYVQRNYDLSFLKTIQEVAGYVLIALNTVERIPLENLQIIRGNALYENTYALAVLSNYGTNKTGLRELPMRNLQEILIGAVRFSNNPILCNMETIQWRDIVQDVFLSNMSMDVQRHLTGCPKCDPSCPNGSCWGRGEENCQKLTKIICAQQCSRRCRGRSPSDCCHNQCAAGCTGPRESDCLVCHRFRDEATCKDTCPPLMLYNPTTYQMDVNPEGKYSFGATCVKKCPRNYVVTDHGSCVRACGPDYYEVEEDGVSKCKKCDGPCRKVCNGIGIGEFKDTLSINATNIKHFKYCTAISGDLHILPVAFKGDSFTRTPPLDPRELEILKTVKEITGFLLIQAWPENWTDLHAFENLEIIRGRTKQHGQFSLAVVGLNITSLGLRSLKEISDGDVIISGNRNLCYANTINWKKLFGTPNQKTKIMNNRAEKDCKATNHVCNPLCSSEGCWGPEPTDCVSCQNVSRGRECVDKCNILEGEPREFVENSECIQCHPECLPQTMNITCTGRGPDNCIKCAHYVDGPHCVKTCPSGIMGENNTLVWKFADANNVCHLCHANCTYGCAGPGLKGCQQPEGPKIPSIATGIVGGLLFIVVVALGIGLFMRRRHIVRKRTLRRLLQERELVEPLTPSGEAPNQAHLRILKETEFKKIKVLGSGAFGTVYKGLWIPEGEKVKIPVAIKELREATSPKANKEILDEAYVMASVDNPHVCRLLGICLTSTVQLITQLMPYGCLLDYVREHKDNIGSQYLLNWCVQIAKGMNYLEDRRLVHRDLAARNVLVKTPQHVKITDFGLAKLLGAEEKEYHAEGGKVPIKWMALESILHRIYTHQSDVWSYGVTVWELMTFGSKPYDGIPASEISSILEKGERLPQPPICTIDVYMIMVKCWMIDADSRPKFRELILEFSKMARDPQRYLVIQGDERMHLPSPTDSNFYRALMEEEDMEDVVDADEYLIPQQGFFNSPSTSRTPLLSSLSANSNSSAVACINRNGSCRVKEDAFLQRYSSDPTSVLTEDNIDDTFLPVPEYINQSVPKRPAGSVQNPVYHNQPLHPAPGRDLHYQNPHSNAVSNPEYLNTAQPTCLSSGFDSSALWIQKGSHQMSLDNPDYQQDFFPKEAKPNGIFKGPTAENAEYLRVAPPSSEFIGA
Method: EGF (10 μg/100 g body weight) was injected via the jugular vein into anesthetized rats. The animals were sacrificed by decapitation 15 mins later and ENs containing EGF receptor were prepared as noted above. Resuspended ENs containing EGF receptor were incubated for 15 mins with 5 mM ATP after which auto-phosphorylation was initiated by adding ^32P-ATP. The reaction was stopped after 15 mins of incubation at 37° C. by adding Laemmli sample buffer after which aliquots (100 μg protein) were subjected to SDS-PAGE, alkali digestion, and radioautography as described previously (Faure, R. et al. (1992) J. Biol. Chem. 267, 11215-11221).
We then determined whether preincubation with ATP attenuated EGF receptor autophosphorylation. […] EN fractions, prepared 15 mins after injecting rats with EGF (10 μg/100 g body weight), were incubated in the presence or absence of ATP (5 mM) prior to conducting autophosphorylation with ^32P-ATP, SDS-PAGE, and autoradiography.

[2] = molecular target: T2, insulin receptor kinase (IRK) β-subunit (Rattus norvegicus, UniProt P15127); assay: IRK β-subunit phosphotyrosine content (αPY immunoblot of WGA eluates); assay type: biochemical
T2 construct: from tissue; host or cells: rat liver; endosome (EN) and plasma membrane (PM) fractions
T2 sequence (P15127 27-759 limits assumed): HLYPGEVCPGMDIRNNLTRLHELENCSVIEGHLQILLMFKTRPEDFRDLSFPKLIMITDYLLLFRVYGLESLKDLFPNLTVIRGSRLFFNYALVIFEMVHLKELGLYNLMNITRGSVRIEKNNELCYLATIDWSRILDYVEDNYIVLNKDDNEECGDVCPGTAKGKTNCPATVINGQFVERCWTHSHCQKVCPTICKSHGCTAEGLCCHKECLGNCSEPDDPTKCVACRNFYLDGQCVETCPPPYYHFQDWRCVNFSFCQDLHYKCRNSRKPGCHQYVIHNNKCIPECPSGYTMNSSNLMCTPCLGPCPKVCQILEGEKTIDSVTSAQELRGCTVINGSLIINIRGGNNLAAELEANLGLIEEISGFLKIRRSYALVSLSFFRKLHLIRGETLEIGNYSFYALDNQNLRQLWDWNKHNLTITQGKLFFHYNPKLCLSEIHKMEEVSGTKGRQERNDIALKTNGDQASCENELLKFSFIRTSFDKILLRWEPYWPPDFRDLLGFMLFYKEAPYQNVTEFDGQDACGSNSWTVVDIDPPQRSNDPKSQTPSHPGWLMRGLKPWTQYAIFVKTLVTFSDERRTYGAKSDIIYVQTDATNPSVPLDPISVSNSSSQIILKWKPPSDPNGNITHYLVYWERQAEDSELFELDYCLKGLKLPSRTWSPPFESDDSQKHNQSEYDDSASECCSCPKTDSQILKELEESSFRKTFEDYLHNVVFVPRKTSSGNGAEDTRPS
T2 sequence (P15127 764-1383 limits assumed): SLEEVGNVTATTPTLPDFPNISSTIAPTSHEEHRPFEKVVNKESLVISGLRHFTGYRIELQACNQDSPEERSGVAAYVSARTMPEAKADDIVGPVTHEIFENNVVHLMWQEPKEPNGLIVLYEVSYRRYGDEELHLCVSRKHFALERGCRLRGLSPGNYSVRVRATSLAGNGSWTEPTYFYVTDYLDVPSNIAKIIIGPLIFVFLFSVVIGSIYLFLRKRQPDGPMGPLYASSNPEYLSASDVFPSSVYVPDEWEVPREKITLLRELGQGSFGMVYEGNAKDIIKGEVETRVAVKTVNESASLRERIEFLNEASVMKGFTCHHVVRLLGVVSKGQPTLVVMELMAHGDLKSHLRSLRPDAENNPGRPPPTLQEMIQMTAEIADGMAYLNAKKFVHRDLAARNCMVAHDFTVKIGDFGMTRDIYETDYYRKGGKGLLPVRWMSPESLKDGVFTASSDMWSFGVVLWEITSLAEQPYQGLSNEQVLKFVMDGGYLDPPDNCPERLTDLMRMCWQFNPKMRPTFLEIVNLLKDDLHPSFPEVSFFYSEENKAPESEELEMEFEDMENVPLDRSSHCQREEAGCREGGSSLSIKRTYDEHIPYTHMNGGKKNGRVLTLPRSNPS
Method: The phosphotyrosine content of endosomal IRs (ENs containing IR) was determined by subjecting lectin column (WGA-Sepharose™)-purified preparations to SDS-PAGE and immunoblotting with α960 and αPY (Faure et al. (1992) J. Biol. Chem. 267, 11215-11221). […] FIG. 1B illustrates the effect of ATP on β subunit phosphotyrosine content. WGA eluates (5 μg protein) were subjected to SDS-PAGE in 7.5% gels followed by transfer of proteins to Immobilon-P membranes. Membranes were probed with αPY or α960 antibodies followed by incubation with ^125I-GAR as second antibody and exposed for autoradiography.

[3] = test system: 125I-hGH binding; assay: 125I-hGH binding after preincubating endosomes with ATP; set-up: species or system rat; conditions: preincubation 37° C. 15 min, percent of control
Method: (1992) J. Biol. Chem. 267, 11215-11221). Livers were rapidly excised, placed in ice-cold homogenizing buffer (50 mM HEPES (pH 7.4), 0.25 M sucrose, 1 mM PMSF, 1 MM MgCl2, 1 mM benzamidine) and minced before homogenization. Combined ENs and PM fractions were prepared (Faure et al. (1992) J. Biol. Chem. 267, 11215-11221) except that the buffer used throughout was that in which the livers were minced (see above). These subcellular fractions have been characterized in detail both morphologically and biochemically. […] I. et al. (1982) J. Biol. Chem. 257, 5789-5799). Protein content in the fractions was determined by a modification of Bradford's method using serum albumin as a standard (Khan, M. N. et al. […] In the present study we wished to assess whether other processes might be involved in reducing the association of intraendosomal insulin with its receptor. We examined the effect of incubating intact ENs containing IR with increasing concentrations of ATP on subsequently measured insulin and hGH binding in both solubilized and WGA-purified receptors. […] [table]

## Nc1ncnc2c1ncn2[C@@H]1O[C@H](COP(=O)(O)OP(=O)(O)OP(=O)(O)O)[C@@H](O)[C@H]1O [ATP, adenosine 5′triphosphate]
[1]
  32P-labeling (autophosphorylation) of the EGF receptor (FIG. 3B): no significant attenuation
[2]; 1 mM ATP, 15 min 37° C.
  IRK phosphotyrosine content (FIG. 1B): markedly increased
[2]; 5 mM ATP, compared to 1 mM ATP
  IRK phosphotyrosine content (FIG. 1B): significantly reduced
[2]; 10 mM ATP, compared to 1 mM ATP
  IRK phosphotyrosine content (FIG. 1B): virtually abolished
[2]; preincubation 1 mM ATP 15 min, second incubation 5 mM ATP
  IRK phosphotyrosine content after sequential incubations (FIG. 7A): substantial retention
[2]; sequential incubations in 1 mM ATP
  IRK phosphotyrosine content after sequential incubations: no deleterious effect
[3]; ATP 0.1 mM
  125I-hGH specific binding, WGA-purified endosomes: 88.7 ± 3.4%
  125I-hGH specific binding, solubilized endosomes: 105.0 ± 5.1%
[3]; ATP 1 mM
  125I-hGH specific binding, WGA-purified endosomes: 93.3 ± 5.1%
  125I-hGH specific binding, solubilized endosomes: 84.4 ± 6.6%
[3]; ATP 10 mM
  125I-hGH specific binding, WGA-purified endosomes: 75.2 ± 3.5%
  125I-hGH specific binding, solubilized endosomes: 98.3 ± 3.5%
